One assay concerns the target T1, Cysteinyl leukotriene receptor 1 (Cavia porcellus) (UniProt Q2NNR5).
T1 sequence (whole entry): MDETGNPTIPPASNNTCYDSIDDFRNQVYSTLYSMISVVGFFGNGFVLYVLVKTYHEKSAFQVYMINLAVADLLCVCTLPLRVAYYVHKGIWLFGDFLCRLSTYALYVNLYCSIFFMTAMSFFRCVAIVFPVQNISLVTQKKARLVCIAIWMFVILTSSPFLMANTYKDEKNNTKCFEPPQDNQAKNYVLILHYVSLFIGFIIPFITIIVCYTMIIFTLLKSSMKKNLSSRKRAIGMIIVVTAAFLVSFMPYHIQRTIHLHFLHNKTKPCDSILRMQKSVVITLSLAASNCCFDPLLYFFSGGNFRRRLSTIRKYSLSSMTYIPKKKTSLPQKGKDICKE
The assay is described as follows: Radioligand binding affinity against LTD4 receptor in guinea pig lung membranes at the concentration of 30 nM. As to conditions: Membrane. Type of assay: cell membranes.
Turning to `CCCc1c(OCc2cccc(OCc3ccc4ccccc4n3)c2)ccc2c1OC(C(=O)O)CC2=O` (stereo not given), the inhibition is 22%.

Another assay concerns the target T2, Cysteinyl leukotriene receptor 1 (Cavia porcellus, UniProt Q2NNR5).
T2 sequence (Q2NNR5 whole entry): T1 sequence (whole entry)
The assay is described as follows: Binding affinity against LTD4 receptor in guinea pig lung membranes. Type of assay: cell membranes.
Settings: not given
As to `CC1(CCC(=O)O)CC(=O)c2ccc(OCc3cccc(OCc4ccc5ccccc5n4)c3)cc2O1` (stereo not given), the inhibition constant (Ki) is 1.2 nM.
The same measure, in the same setting: under `O=C1CC(C(=O)O)Oc2cc(COc3ccc(OCc4ccc5ccccc5n4)cc3)ccc21` (stereo not given) stands 6.3 nM; under `CCOC(=O)C1CC(=O)c2ccc(COc3cccc(OCc4ccc5ccccc5n4)c3)cc2O1` (stereo not given), 30 nM; under `O=C1CC(C(=O)O)Oc2ccc(OCc3cccc(OCc4ccc5ccccc5n4)c3)cc21` (stereo not given), 1.3 nM.
On the same count and under the same terms, under `O=C1CC(c2nnn[nH]2)Oc2cc(CCc3cccc(OCc4ccc5ccccc5n4)c3)ccc21` (stereo not given) stands 0.3 nM; under `O=C1CC(c2nnn[nH]2)Oc2c(COc3ccc(OCc4ccc5ccccc5n4)cc3)cccc21` (stereo not given), 15 nM; under `O=C1CC(C(=O)O)Oc2c(COc3ccc(OCc4ccc5ccccc5n4)cc3)cccc21` (stereo not given), 13 nM.
For the compound `O=C1CC(C(=O)O)Oc2cc(OCc3cccc(OCc4ccc5ccccc5n4)c3)ccc21` (stereo not given), the affinity, expressed as Ki, was 2.1 nM.
Take `O=C1CC(c2nnn[nH]2)Oc2cc(OCc3cccc(OCc4ccc5ccccc5n4)c3)ccc21` (stereo not given): the affinity corresponds to a Ki of 0.1 nM.
`O=C1CC(c2nnn[nH]2)Oc2cc(/C=C/c3cccc(OCc4ccc5ccccc5n4)c3)ccc21` (stereo not given) returned an inhibition constant (Ki) of 2.5 nM.
On the same count and under the same terms, under `O=C1CC(c2nnn[nH]2)Oc2cc(COc3cccc(OCc4ccc5ccccc5n4)c3)ccc21` (stereo not given) stands 0.12 nM; under `O=C1CC(C(=O)O)Oc2ccc(Cl)c(OCc3ccc(OCc4ccc5ccccc5n4)cc3)c21` (stereo not given), 18 nM.
`O=C(O)c1cc(=O)c2ccc(OCc3ccc4ccccc4n3)cc2o1` came in with an inhibitory constant (Ki) of 7000 nM.
Same read-out and setting: under `O=C(Nc1cccc2c1OC(c1nnn[nH]1)CC2=O)c1ccc(OCc2ccc3ccccc3n2)cc1` (stereo not given) stands 1.1 nM.

As a reminder, the inhibition is the relative decrease from the control value, in per cent. A word on the Ki: it is the dissociation constant of the complex between target and ligand, obtained from inhibition or displacement. Low values mean higher affinity, high ones lower affinity.
